Results taken from US5071957A, “Antibiotic BU-4061T” (Bristol-Myers Company, priority 1990, dated 1991).
In brackets after ≈: the same amount, converted by molar mass.

Legend:
[1] = system: B16 melanoma; test: Antitumor activity against B16 melanoma (ip)
Experimental: (§1) To determine in vivo antitumor activity of BU-4061T, male BDF1 mice were intraperitoneally inoculated with 0.5 ml of 10% melanotic melanoma B16 brei, and female CDF1 mice were intraperitoneally inoculated with 0.4 ml of diluted ascitic fluid containing 10^6 lymphocytic leukemia P388 cells. […] Test materials were intraperitoneally administered to mice on days 1, 5 and 9 (Q4D×3) or on days 1 to 9 (QlD×9).

[2] = system: RNA synthesis in B16-F10 melanoma cells; test: Inhibition of RNA synthesis (14C-uridine incorporation) in B16-F10 melanoma cells; assay type: cell-based, murine
Experimental: (§2) Inhibitory effects of BU-4061T on the macromolecule (DNA, RNA and protein) synthesis were determined in cultured B16-F10 melanoma cells. B16-F10 cells (10^5 cells/ml) were incubated with the compound at 37° C. for 4.5 hours (for DNA synthesis) or 4 hours (for RNA and protein synthesis). Labelled precursor, ^3 H-thymidine, ^14 C-uridine or ^3 H-leucine was added to the culture and further incubated for 30 minutes (for DNA) or 60 minutes (for RNA and protein). After washing with chilled 5% trichloroacetic acid solution, the radioactivity incorporated into the acid-insoluble fraction of the tumor cells was determined by a liquid scintillation counter.

[3] = system: P388 leukemia; test: Antitumor activity against P388 leukemia (ip); conditions: Q1D × 9
Experimental: as §1

[4] = system: Moser (human colorectal carcinoma) cells; test: In vitro cytotoxicity against Moser cells; assay type: cell-based
Experimental: (§3) B16-F10 (murine melanoma) and Moser (human colorectal carcinoma) cells were grown to the logarithmic phase in the enriched Eagle minimum essential medium supplemented with fetal calf serum (FCS, 10%) and kanamycin (60 μg/ml), while HCT-116 (human colon carcinoma) was grown in McCoy's 5A medium supplemented with FCS (10%) penicillin (100 μ/ml) and streptomycin (100 μg/ml). B16-F10, Moser and HCT-116 cells were harvested and implanted into wells of a 96-well microtiter plate with test materials at the inoculum sizes of 3×10^4, 6×10^4 and 6×10^4 cells/ml, respectively. They were incubated at 37° C. in a humidified atmosphere of 5% CO2 and 95% air for 72 hours. The cytotoxicity against tumor cells was determined colorimetrically at 540 nm after staining viable cells.

[5] = system: DNA synthesis in B16-F10 melanoma cells; test: Inhibition of DNA synthesis (3H-thymidine incorporation) in B16-F10 melanoma cells; assay type: cell-based, murine
Experimental: as §2

[6] = system: B16-F10 (murine melanoma) cells; test: In vitro cytotoxicity against B16-F10 cells; assay type: cell-based; conditions: 72 hours, colorimetric at 540 nm
Experimental: as §3

[7] = system: protein synthesis in B16-F10 melanoma cells; test: Inhibition of protein synthesis (3H-leucine incorporation) in B16-F10 melanoma cells; assay type: cell-based, murine
Experimental: as §2

[8] = Solubility (physico-chemical properties); assay type: physicochemical
From the text: BU-4061T was obtained as a white amorphous powder. […] BU-4061T gave positive response to iodine vapor, ammonium molybdate-sulfuric acid solution and Rydon-Smith reagent, but negative response to ninhydrin and anthrone reagent.

[9] = system: HCT-116 (human colon carcinoma); test: In vitro cytotoxicity against HCT-116 cells; assay type: cell-based; conditions: 72 hours, colorimetric at 540 nm
Experimental: as §3

## CC[C@H](C)[C@H](NC(=O)[C@H]([C@@H](C)CC)N(C)C(C)=O)C(=O)N[C@H](C(=O)N[C@@H](CC(C)C)C(=O)[C@@]1(C)CO1)[C@@H](C)O [BU-4061T]
[1]; 0.063 mg/kg/day ip, Q1D × 9
  MST (median survival time): 15.5 days
  T/C: 119%
[1]; 0.13 mg/kg/day ip, Q1D × 9
  MST (median survival time): 16.0 days
  T/C: 123%
[1]; 0.25 mg/kg/day ip, Q1D × 9
  MST (median survival time): 18.0 days
[1]; 0.25 mg/kg/day ip, Q4D × 3
  MST (median survival time): 14.5 days
  T/C: 112%
[1]; 0.5 mg/kg/day ip, Q1D × 9
  MST (median survival time): 19.5 days
[1]; 0.5 mg/kg/day ip, Q4D × 3
  MST (median survival time): 15.5 days
  T/C: 119%
[1]; 1 mg/kg/day ip, Q1D × 9
  MST (median survival time): 19.0 days
[1]; 1 mg/kg/day ip, Q4D × 3
  MST (median survival time): 15.5 days
  T/C: 119%
[1]; 2 mg/kg/day ip, Q4D × 3
  MST (median survival time): 17.0 days
[1]; 4 mg/kg/day ip, Q4D × 3
  MST (median survival time): 16.5 days
[1]; ip, either Q4D×3 or Q1D×9 treatment schedule
  antitumor activity against B16 melanoma (in words): significant antitumor activities
[2]
  inhibitory effect on RNA synthesis (in words): moderate inhibitory effects
[2]; 4 hours + 60 minutes 14C-uridine
  IC50 RNA: 46 µg/mL
[3]; 0.063 mg/kg/day ip
  MST (median survival time): 10.5 days
  T/C: 105%
[3]; 0.13 mg/kg/day ip
  MST (median survival time): 11.0 days
  T/C: 110%
[3]; 0.25 mg/kg/day ip
  MST (median survival time): 11.5 days
  T/C: 115%
[3]; 0.5 mg/kg/day ip
  MST (median survival time): 13.0 days
[3]; 1 mg/kg/day ip
  MST (median survival time): 10.5 days
  T/C: 105%
[4]; 72 hours, colorimetric at 540 nm
  IC50 Moser: 0.17 µg/mL (≈ 0.306 µM)
[4]; compared with B16-F10 and HCT-116 cells
  cytotoxicity against Moser cells (in words): weaker than that against B16-F10 and HCT-116 cells
[5]
  inhibitory effect on DNA synthesis (in words): moderate inhibitory effects
[5]; 4.5 hours + 30 minutes 3H-thymidine
  IC50 DNA: 16 µg/mL
[6]
  IC50 B16-F10: 4.7 ng/mL (≈ 0.00847 µM)
[7]; 100 μg/ml, the highest concentration tested
  inhibition of incorporation of leucine into the protein fraction (in words): did not significantly inhibit
[7]; B16-F10 cells, 4 hours + 60 minutes 3H-leucine
  IC50 Protein: > 100 µg/mL
[8]; ethyl acetate
  solubility in ethyl acetate: readily soluble
[8]; methanol
  solubility in methanol: readily soluble
[8]; methylene chloride
  solubility in methylene chloride: readily soluble
[8]; water
  solubility in water: practically insoluble
[9]
  IC50 HCT-116: 6.7 ng/mL (≈ 0.0121 µM)

## CO[C@@]12[C@H](COC(N)=O)C3=C(C(=O)C(C)=C(N)C3=O)N1C[C@@H]1N[C@@H]12 [Mitomycin C, mitomycin C]
[1]; 0.3 mg/kg/day ip, Q4D × 3
  Body Wt. change on day 5: -0.3 g
  MST (median survival time): 13.0 days
  T/C: 100%
[1]; 1 mg/kg/day ip, Q4D × 3
  Body Wt. change on day 5: -0.8 g
  MST (median survival time): 18.0 days
[1]; 3 mg/kg/day ip, Q4D × 3
  Body Wt. change on day 5: -0.3 g
  MST (median survival time): 28.0 days
[3]; 0.063 mg/kg/day ip
  Body Wt. change on day 4: +0.8 g
  MST (median survival time): 11.0 days
  T/C: 110%
[3]; 0.13 mg/kg/day ip
  Body Wt. change on day 4: +1.3 g
  MST (median survival time): 12.0 days
  T/C: 120%
[3]; 0.25 mg/kg/day ip
  Body Wt. change on day 4: +1.0 g
  MST (median survival time): 13.0 days
[3]; 0.5 mg/kg/day ip
  Body Wt. change on day 4: 0.0 g
  MST (median survival time): 15.5 days
[3]; 1 mg/kg/day ip
  Body Wt. change on day 4: -0.8 g
  MST (median survival time): 17.0 days
